Assay: water solubility / miscibility with water
Format: physicochemical

| SMILES | water solubility (miscibility with water) |
| --- | --- |
| CCCCCCCC[n+]1ccccc1.N#C[N-]C#N [N-octylpyridinium dicyanamide] | water-immiscible |
| CCCCCCCC[n+]1cccc(C)c1.N#C[N-]C#N [N-octyl-3-methylpyridinium dicyanamide, 3-Methyl-1-octylpyridinium dicyanamide] | water-immiscible |
| CCCC[n+]1ccccc1.N#C[N-]C#N [N-butylpyridinium dicyanamide] | water-miscible |
| CCCC[n+]1cccc(C)c1.N#C[N-]C#N [N-butyl-3-methylpyridinium dicyanamide, 3-Methyl-1-butylpyridinium dicyanamide] | water-miscible |
